Measured values as given in US20200188388A1, “METHODS AND COMPOSITIONS FOR PO[…] DRUGS AND REDUCING THEIR SIDE EFFECTS” (RVX THERAPEUTICS LTD., priority 2016, published 2020).

Test system: Wistar rats
Test: Rotenone-induced PSP: severe ataxia, limb dystonia and lethality
Assay type: in vivo, rat
Conditions: for Severe ataxia sustained dystonic postures and lethality (% of group): ataxia and limb dystonia ++-+++; for [lethality] (% of group): value in brackets
Method: The neuro-protective effect in the experimental groups of rats with rotenone-induced PSP was evaluated due the elimination of ataxia, limb dystonia and mortality caused by cerebellar neurotoxic action of rotenone (J. Neurochem., 2005, Vol. 95(4):930-9).
Ataxia and limb dystonia is typical incoordination neurotoxic effect of rotenone manifested in uncoordinated movements and hyper-locomotion, replaced by hypokinesia and stereotypes, and in severe cases a complete violation of antigravity reflexes, falling on its side dystonic posture and akinesia. Assessment of the severity of ataxia and limb dystonia in scores was performed using the following scale: (+) uncoordinated movement, hyperkinesia; (++) significant incoordination, hypokinesia, stereotypes, falling on its side; frequent spontaneous dystonic postures (+++) complete violation of antigravity reflexes, akinesia, sustained dystonic posture (J. Neurosci., 2014, 27; 34(35):11723-32)
Ataxia and limb dystonia registration was performed twice daily, 30 minutes before administration of rotenone and 180 minutes after administration of rotenone. For each experimental group on a daily basis, throughout the whole period of observation number of rats with severe ataxia and limb dystonia (++−+++) and mortality in % of the total number of rats in group was determined. The neuro-protective effect of therapy (effects on rate of ataxia, limb dystonia and lethality) in rats with PSP was determined at days 12 and 19 of the experiment as reducing the number of rats with severe ataxia limb dystonia and mortality in % compared to control. Side hyperkinetic effects were evaluated in the “open field” test. In this test the locomotive activity in rats is determined. […] Registration of horizontal and vertical locomotive activity in OF assay was performed on the 10th and 18th day of the experiment, within 40 minutes after administration of the substance and 5 minutes before administration of rotenone. Side hyperkinetic effects was evaluated by the number of rats with a significant (at least 50% compared with the first day of the experiment) increase in horizontal and vertical activity (hyperkinesia) as a % of the total number of rats in group.
The neuro-protective effect in the experimental groups of rats with rotenone-induced PSP was evaluated due the elimination of ataxia and mortality caused by neurotoxic action of rotenone. Ataxia is typical incoordination neurotoxic effect of rotenone manifested in uncoordinated movements and hyper-locomotion, replaced by hypokinesia and stereotypes, and in severe cases a complete violation of antigravity reflexes, falling on its side and akinesia. Assessment of the severity of ataxia in scores was performed using the following scale: (+) uncoordinated movement, hyperkinesia; (++) significant incoordination, hypokinesia, stereotypes, falling on its side; (+++) complete violation of antigravity reflexes, akinesia. Ataxia registration was performed twice daily, 30 minutes before administration of rotenone and 180 minutes after administration of rotenone. For each experimental group on a daily basis, throughout the whole period of observation number of rats with severe ataxia (++−+++) and mortality in % of the total number of rats in group was determined. The neuro-protective effect of therapy (effects on rate of ataxia and lethality) in rats with PSP was determined at days 12 and 19 of the experiment as reducing the number of rats with severe ataxia and mortality in % compared to control. Side hyperkinetic effects were evaluated in the “open field” test. In this test the locomotive activity in rats is determined. […] Registration of horizontal and vertical locomotive activity in OF assay was performed on the 10th and 18th day of the experiment, within 40 minutes after administration of the substance and 5 minutes before administration of rotenone.

Compound | Severe ataxia sustained dystonic postures and lethality (% of group) (Day 12, levodopa 10 mg/kg oral) | [lethality] (% of group) (Day 12, levodopa 10 mg/kg oral) | Severe ataxia sustained dystonic postures and lethality (% of group) (Day 12, levodopa 20 mg/kg oral) | [lethality] (% of group) (Day 12, levodopa 20 mg/kg oral) | Severe ataxia sustained dystonic postures and lethality (% of group) (Day 19, levodopa 10 mg/kg oral) | [lethality] (% of group) (Day 19, levodopa 10 mg/kg oral) | Severe ataxia sustained dystonic postures and lethality (% of group) (Day 19, levodopa 20 mg/kg oral) | [lethality] (% of group) (Day 19, levodopa 20 mg/kg oral) | Severe ataxia sustained dystonic postures and lethality (% of group) (Day 12, memantine 5 mg/kg oral) | [lethality] (% of group) (Day 12, memantine 5 mg/kg oral) | Severe ataxia sustained dystonic postures and lethality (% of group) (Day 19, memantine 5 mg/kg oral) | [lethality] (% of group) (Day 19, memantine 5 mg/kg oral)
N[C@@H](Cc1ccc(O)c(O)c1)C(=O)O [Levodopa, L-3,4-dihydroxyphenylalanine] | 14 % of group | 0 % of group | 0[0] % of group | 0[0] % of group | 42 % of group | 14 % of group | 24 % of group | 0 % of group |  |  |  | 
CC12CC3CC(C)(C1)CC(N)(C3)C2 [Memantine, memantine] |  |  |  |  |  |  |  |  | 0 % of group | 17 % of group | 17[17] % of group | 17[17] % of group
